Source: patent US4649143A, “Methods and compositions for treating protozoal infections with a novel antibiotic” (priority 1984, dated 1987)
≈ marks a conversion by molar mass, not a printed value.

Assays:
Bacillus cereus = test: In vitro antimicrobial spectrum, agar plate dilution MIC; format: cell-based; conditions: LL No. 4, Mueller-Hinton agar, 18 hours, 35° C.
Experimental: (§1) The in vitro antimicrobial spectrum of LL-D42067β was determined by the agar plate dilution method with Mueller-Hinton agar and an inoculum of each test organism of approximately 10^4 colony forming units delivered by the Steers replicating device. The minimal inhibitory concentration (MIC) in mcg/ml was defined as the lowest concentration of LL-D42067β that inhibited visible growth after 18 hours incubation at 35° C.

Bacillus subtilis = test: as above; format: cell-based; conditions: ATCC6633, ATCC 6633, Mueller-Hinton agar, 18 hours, 35° C.
Experimental: as §1

Enterococcus = test: as above; format: cell-based; conditions: 18 h, 35° C.
Experimental: as §1

Micrococcus luteus = test: as above; format: cell-based; conditions: PC 1001, Mueller-Hinton agar, 18 hours, 35° C.
Experimental: as §1

Staphylococcus aureus = test: as above; format: cell-based; conditions: 18 h, 35° C.
Experimental: as §1

[1] = system: Staphylococcus epidermidis; test: as above; format: cell-based; conditions: CMC 83-56, Mueller-Hinton agar, 18 hours, 35° C.
Experimental: as §1

Streptococcus faecalis = test: as above; format: cell-based; conditions: Enterococcus faecalis, ATCC29212; ATCC 29212; Mueller-Hinton agar, 18 hours, 35° C.
Experimental: as §1

Streptococcus sanguis = test: as above; format: cell-based; conditions: G9B (a), Mueller-Hinton agar, 18 hours, 35° C.
Experimental: as §1

gram-positive bacteria = test: In vitro antimicrobial spectrum, summary; format: cell-based
Experimental: as §1

yeasts = test: In vitro antimicrobial spectrum, summary; format: cell-based
Experimental: as §1

[2] = system: Eimeria acervulina and Eimeria tenella (mixed inoculum); test: Anticoccidial evaluation in infected chicks, survival; format: in vivo, Eimeria tenella; chicks; conditions: for Percent Survival: chicks, 7 days after inoculation
Experimental: (§2) The poultry diet employed in the test is as follows: The vitamin-amino acid premix in the above feed composition is prepared from the following formulation. The expressions of quantity relate to units per kilogram of the finished feed composition. A mixed inoculum of 5000 sporulated oocysts of Eimeria acervulina and a sufficient number of oocysts of Eimeria tenella to produce 60% to 75% mortality in untreated controls were given to one-day-old chicks, by direct inoculation into the crops of all chicks. The chicks were given free access to feed and water during the entire test period. Two days before inoculation, medicated feed with several levels of drug was presented to the various groups of chicks. Seven days after inoculation, the tests were terminated and the chicks were weighed, necropsied, and their intestinal tracts examined for lesions.

Eimeria tenella = test: Anticoccidial evaluation in infected chicks, intestinal lesions; format: in vivo, Eimeria tenella; chicks; conditions: for Percent Chicks with Reduced Lesions E. tenella: 7 days after inoculation
Experimental: as §2

Eimeria acervulina = test: as above; format: in vivo, Eimeria acervulina; chicks; conditions: 0.5 ppm to 5.0 ppm in diet
Experimental: as §2

Solubility in water = format: physicochemical; conditions: compound and its acceptable salts

SMILES: COc1c2c(c(O)c3c(=O)c4c(oc13)[C@@H](O)CC[C@@H]4O)-c1c3c(c4cc(C)[nH]c(=O)c4c1O)OCO[C@H]3C2 (relative stereo) [LL-D42067β]
- MIC (Bacillus cereus): ≤ 0.06 µg/mL
- MIC (Bacillus subtilis): 4 µg/mL (≈ 7.67 µM)
- MIC (Enterococcus; OSU 75-1, Mueller-Hinton agar): 1 µg/mL (≈ 1.92 µM)
- MIC (Enterococcus; SM 77-15, Mueller-Hinton agar): 2 µg/mL (≈ 3.84 µM)
- MIC (Micrococcus luteus): ≤ 0.06 µg/mL
- MIC (Staphylococcus aureus; LL No. 14, Mueller-Hinton agar): 0.5 µg/mL (≈ 0.959 µM)
- MIC (Staphylococcus aureus; LL No. 27, Mueller-Hinton agar): ≤ 0.06 µg/mL
- MIC (Staphylococcus aureus; Smith, Mueller-Hinton agar): 0.5 µg/mL (≈ 0.959 µM)
- MIC [1]: 0.5 µg/mL (≈ 0.959 µM)
- MIC (Streptococcus faecalis): 1 µg/mL (≈ 1.92 µM)
- MIC (Streptococcus sanguis): 0.5 µg/mL (≈ 0.959 µM)
- activity versus gram-positive bacteria (gram-positive bacteria): active
- activity against yeasts (yeasts): moderately active
- survival of infected chicks ([2]; 0.5 ppm to 5.0 ppm in diet): improved survival
- Percent Survival ([2]; 0.5 ppm in diet): 40%
- Percent Survival ([2]; 0.75 ppm in diet): 60%
- Percent Survival ([2]; 1.00 ppm in diet): 80%
- Percent Survival ([2]; 2.5 ppm in diet): 100%
- Percent Survival ([2]; 5.0 ppm in diet): 80%
- suppression of lesions due to E. tenella (Eimeria tenella; 0.5 ppm to 5.0 ppm in diet): significant suppression of lesions
- Percent Chicks with Reduced Lesions E. tenella (Eimeria tenella; 0.5 ppm in diet): 0%
- Percent Chicks with Reduced Lesions E. tenella (Eimeria tenella; 0.75 ppm in diet): 40%
- Percent Chicks with Reduced Lesions E. tenella (Eimeria tenella; 1.00 ppm in diet): 80%
- Percent Chicks with Reduced Lesions E. tenella (Eimeria tenella; 2.5 ppm in diet): 100%
- Percent Chicks with Reduced Lesions E. tenella (Eimeria tenella; 5.0 ppm in diet): 100%
- suppression of lesions due to E. acervulina (Eimeria acervulina): significant suppression of lesions
- solubility in water (Solubility in water): relatively insoluble in water
